Assay results taken from patent publication US6387880B1, “Transdermal N-[N-[5-[4-(aminoiminomethly)phenyl]-1-oxopentyl]-L-α-aspartyl]-L-phenylalainine or its esters and their pharmaceutically acceptable salts” (G.D. Searle & Co., priority 1996, dated 2002).
Several values for one entry are separate records, joined by “and”; a condition that tells them apart may be missing. Identical values can stand only once.

Test: Transdermal shaved rat model: radiolabelled compound in gel patch, amount recovered in urine and feces
Conditions: for Mg transported in Feces 24 Hrs / Mg transported in Feces 48 Hrs / Mg transported in Feces 72 Hrs / Mg transported in Urine 24 Hrs / Mg transported in Urine 48 Hrs / Mg transported in Urine 72 Hrs / Mg transported Total (feces + urine) / Mg transported Total, Mean: diethyl ester section, transdermal patch; for Mg transported in Feces 24 Hrs / Mg transported in Feces 48 Hrs / Mg transported in Feces 72 Hrs / Mg transported in Urine 24 Hrs / Mg transported in Urine 48 Hrs / Mg transported in Urine 72 Hrs / Mg transported Total (feces + urine): individual rats; for Mg transported Total (feces + urine): 72 Hrs; for Mg transported Total, Mean: mean of 4 rats
Text: Rats were anesthetized with N2O/O2 and [sequence] fluorocarbon anesthesia using a metering device (Quantifier VMC Anesthesia Machine, Matrix Media Inc.) The rat's back was carefully shaved using an electric razor the day before the transdermal experiment, and no abrasions in the skin surface were apparent.
Compound was applied to the skin using a Hilltop Chambers® transdermal delivery plastic device, in which the compound was contained in a 3% hydroxypropyl cellulose gel. The device was glued in place using cyanomethacrylate (Superbinder 495, Newark Electronics).
The aqueous formulation was 2% in N-[N-[5-[4-(aminoiminomethyl)phenyl]-1-oxopentyl]-L-α-aspartyl]-L-phenylalanine, monohydrochloride (10 mg N-[N-[5-[4-(aminoiminomethyl)phenyl]-1-oxopentyl]-L-α-aspartyl]-L-phenylalanine, monohydrochloride 0.5 ml gel/2.5 cm^2 patch). N(N-[5-[4-(aminoiminomethyl)-phenyl]-1-oxopentyl]-L-α-aspartyl]-L-phenylalanine, monohydrochloride was neutralized to pH 7.4 with KOH and buffered with 5 mM HEPES N-[2-hydroxyethyl] piperazine-N′-[2-ethanesulfonic acid]in 90% water, 10% propylene glycol. The N-methyl pyrrolidone formulation was made by dissolving 100 mg [^3H] N-[N-[5-[4-(aminoiminomethyl)phenyl]-1-oxopentyl]-L-α-aspartyl]-L-phenylalanine, monohydrochloride [15 microcuries] in 400 microliters N-methyl pyrrolidone. The 0.5 ml solution was made into a gel by adding 15 mg hydroxypropyl cellulose and incubating at ambient temperatures for 16 hours. Thirty microcuries [^3H] N-[N-[5-[4-(aminoiminomethyl)phenyl]-1-oxopentyl]-L-α-aspartyl]-L-phenylalanine, monohydrochloride (specific activity: 928 mCurie/mmol) was added as a tracer. The amount of compound in a sample was calculated from the number of counts detected and the specific radioactivity of the compound in the patch.
Urine and feces were collected daily after patch application as indicated in the Table I. Counts were combined to achieve the total amount delivered. Urine was counted directly by scintillography (Hionic Fluid, Packard Co., Mark Ill.), while feces, were processed by mechanical mixing in saline followed by oxidization of a dried aliquot to tritiated water in an oxidizer (Oxidizer Machine, Packard).

average amount delivered (2.5 cm^2 patch, rat): 4.6 ± 1.9 mg
Mg transported in Feces 24 Hrs (Ethanol): 0.05 Mg and 0.01 Mg (2×) and 0.04 Mg
Mg transported in Urine 24 Hrs (Ethanol): 0.02 Mg and 0.01 Mg and 0.00 Mg (2×)
Mg transported in Urine 72 Hrs (Ethanol): 0.42 Mg and 0.19 Mg and 0.11 Mg (2×)
Mg transported Total, Mean (Ethanol): 4.62 Mg
Mg transported in Feces 24 Hrs (Saline): 0.48 Mg and 0.67 Mg and 0.02 Mg (2×)
Mg transported in Urine 24 Hrs (Saline): 0.19 Mg and 0.17 Mg and 0.00 Mg (2×)
Mg transported Total, Mean (Saline): 3.99 Mg
SMILES: CCOC(=O)C[C@H](NC(=O)CCCCc1ccc(C(=N)N)cc1)C(=O)N[C@@H](Cc1ccccc1)C(=O)OCC [N-[N-[5-[4-(aminoiminomethyl)phenyl]-1-oxopentyl]-L-α-aspartyl]-L-phenylalanine, diethyl ester]
Mg transported in Feces 48 Hrs (Ethanol): 3.16 Mg and 2.44 Mg and 4.09 Mg and 1.20 Mg
Mg transported in Feces 72 Hrs (Ethanol): 1.51 Mg and 2.33 Mg and 1.67 Mg and 0.43 Mg
Mg transported in Urine 48 Hrs (Ethanol): 0.27 Mg and 0.12 Mg and 0.16 Mg and 0.13 Mg
Mg transported Total (feces + urine) (Ethanol): 5.43 Mg and 5.10 Mg and 6.07 Mg and 1.88 Mg
Mg transported in Feces 48 Hrs (Saline): 4.59 Mg and 3.88 Mg and 0.61 Mg and 1.21 Mg
Mg transported in Feces 72 Hrs (Saline): 0.84 Mg and 1.17 Mg and 0.49 Mg and 0.67 Mg
Mg transported in Urine 48 Hrs (Saline): 0.20 Mg and 0.16 Mg and 0.15 Mg and 0.13 Mg
Mg transported in Urine 72 Hrs (Saline): 0.09 Mg and 0.11 Mg and 0.05 Mg and 0.10 Mg
Mg transported Total (feces + urine) (Saline): 6.39 Mg and 6.16 Mg and 1.32 Mg and 2.09 Mg
